Measured values published in PubChem BioAssay (NCI).
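Method: 48-hour compound exposure of cells in 96-well plates, five concentrations, linear interpolation of endpoints. At the TGI there is no net growth.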

Key:
Test in all cases: NCI tumour cell line growth inhibition, 48 h
786-0 renal = tested on: 786-0 renal
A498 renal = tested on: A498 renal
A549 NSCLC = tested on: A549 NSCLC
ACHN renal = tested on: ACHN renal
BT-549 breast = tested on: BT-549 breast
CCRF-CEM leukemia = tested on: CCRF-CEM leukemia
COLO 205 colon = tested on: COLO 205 colon
DU-145 prostate = tested on: DU-145 prostate
EKVX NSCLC = tested on: EKVX NSCLC
HCC-2998 colon = tested on: HCC-2998 colon
HCT-116 colon = tested on: HCT-116 colon
HCT-15 colon = tested on: HCT-15 colon
HOP-62 NSCLC = tested on: HOP-62 NSCLC
HOP-92 NSCLC = tested on: HOP-92 NSCLC
HT29 colon = tested on: HT29 colon
IGROV1 ovarian = tested on: IGROV1 ovarian
K-562 leukemia = tested on: K-562 leukemia
M14 melanoma = tested on: M14 melanoma
MALME-3M melanoma = tested on: MALME-3M melanoma
MCF7 breast = tested on: MCF7 breast
MDA-MB-231 breast = tested on: MDA-MB-231 breast
MDA-MB-435 = tested on: MDA-MB-435
MDA-N = tested on: MDA-N
MOLT-4 leukemia = tested on: MOLT-4 leukemia
NCI-H226 lung = tested on: NCI-H226 lung
NCI-H23 lung = tested on: NCI-H23 lung
NCI-H460 lung = tested on: NCI-H460 lung
NCI/ADR-RES ovarian = tested on: NCI/ADR-RES ovarian
OVCAR-3 ovarian = tested on: OVCAR-3 ovarian
OVCAR-4 ovarian = tested on: OVCAR-4 ovarian
OVCAR-5 ovarian = tested on: OVCAR-5 ovarian
OVCAR-8 ovarian = tested on: OVCAR-8 ovarian
PC-3 prostate = tested on: PC-3 prostate
RPMI-8226 leukemia = tested on: RPMI-8226 leukemia
SF-268 CNS = tested on: SF-268 CNS
SF-295 CNS = tested on: SF-295 CNS
SK-MEL-28 melanoma = tested on: SK-MEL-28 melanoma
SK-MEL-5 melanoma = tested on: SK-MEL-5 melanoma
SK-OV-3 ovarian = tested on: SK-OV-3 ovarian
SN12C renal = tested on: SN12C renal
SNB-19 CNS = tested on: SNB-19 CNS
SNB-75 CNS = tested on: SNB-75 CNS
SR leukemia = tested on: SR leukemia
SW-620 colon = tested on: SW-620 colon
T-47D breast = tested on: T-47D breast
TK-10 renal = tested on: TK-10 renal
U251 CNS = tested on: U251 CNS
UACC-257 melanoma = tested on: UACC-257 melanoma
UACC-62 melanoma = tested on: UACC-62 melanoma
UO-31 renal = tested on: UO-31 renal
CAKI-1 renal = tested on: CAKI-1 renal
HL-60(TB) leukemia = tested on: HL-60(TB) leukemia
KM12 colon = tested on: KM12 colon
LOX IMVI melanoma = tested on: LOX IMVI melanoma
NCI-H522 lung = tested on: NCI-H522 lung
RXF 393 renal = tested on: RXF 393 renal
SF-539 CNS = tested on: SF-539 CNS
SK-MEL-2 melanoma = tested on: SK-MEL-2 melanoma

CC(=O)OC1CC2C(=O)C(=O)C1(C)C2(C)C (configuration not stated)
TGI (786-0 renal): > 100 µM | TGI (A498 renal): > 100 µM | TGI (A549 NSCLC): > 100 µM | TGI (ACHN renal): > 100 µM | TGI (BT-549 breast): > 100 µM | TGI (CCRF-CEM leukemia): > 100 µM | TGI (COLO 205 colon): > 100 µM | TGI (DU-145 prostate): > 100 µM | TGI (EKVX NSCLC): > 100 µM | TGI (HCC-2998 colon): > 100 µM | TGI (HCT-116 colon): > 100 µM | TGI (HCT-15 colon): > 100 µM | TGI (HOP-62 NSCLC): > 100 µM | TGI (HOP-92 NSCLC): > 100 µM | TGI (HT29 colon): > 100 µM | TGI (IGROV1 ovarian): > 100 µM | TGI (K-562 leukemia): > 100 µM | TGI (M14 melanoma): > 100 µM | TGI (MALME-3M melanoma): > 100 µM | TGI (MCF7 breast): > 100 µM | TGI (MDA-MB-231 breast): > 100 µM | TGI (MDA-MB-435): > 100 µM | TGI (MDA-N): > 100 µM | TGI (MOLT-4 leukemia): > 100 µM | TGI (NCI-H226 lung): > 100 µM | TGI (NCI-H23 lung): > 100 µM | TGI (NCI-H460 lung): > 100 µM | TGI (NCI/ADR-RES ovarian): > 100 µM | TGI (OVCAR-3 ovarian): > 100 µM | TGI (OVCAR-4 ovarian): > 100 µM | TGI (OVCAR-5 ovarian): > 100 µM | TGI (OVCAR-8 ovarian): > 100 µM | TGI (PC-3 prostate): > 100 µM | TGI (RPMI-8226 leukemia): > 100 µM | TGI (SF-268 CNS): > 100 µM | TGI (SF-295 CNS): > 100 µM | TGI (SK-MEL-28 melanoma): > 100 µM | TGI (SK-MEL-5 melanoma): > 100 µM | TGI (SK-OV-3 ovarian): > 100 µM | TGI (SN12C renal): > 100 µM | TGI (SNB-19 CNS): > 100 µM | TGI (SNB-75 CNS): > 100 µM | TGI (SR leukemia): > 100 µM | TGI (SW-620 colon): > 100 µM | TGI (T-47D breast): > 100 µM | TGI (TK-10 renal): > 100 µM | TGI (U251 CNS): > 100 µM | TGI (UACC-257 melanoma): > 100 µM | TGI (UACC-62 melanoma): > 100 µM | TGI (UO-31 renal): > 100 µM

O=C(NNCc1ccc(Cl)cc1)Nc1cccc2ccccc12
TGI (786-0 renal): > 100 µM | TGI (ACHN renal): > 100 µM | TGI (BT-549 breast): > 100 µM | TGI (CAKI-1 renal): > 100 µM | TGI (CCRF-CEM leukemia): > 100 µM | TGI (COLO 205 colon): > 100 µM | TGI (DU-145 prostate): > 100 µM | TGI (EKVX NSCLC): > 100 µM | TGI (HCC-2998 colon): > 100 µM | TGI (HCT-116 colon): > 100 µM | TGI (HCT-15 colon): > 100 µM | TGI (HL-60(TB) leukemia): > 100 µM | TGI (HOP-62 NSCLC): > 100 µM | TGI (HOP-92 NSCLC): > 100 µM | TGI (HT29 colon): > 100 µM | TGI (IGROV1 ovarian): > 100 µM | TGI (K-562 leukemia): > 100 µM | TGI (KM12 colon): > 100 µM | TGI (LOX IMVI melanoma): > 100 µM | TGI (M14 melanoma): > 100 µM | TGI (MALME-3M melanoma): > 100 µM | TGI (MCF7 breast): > 100 µM | TGI (MDA-MB-435): > 100 µM | TGI (MDA-N): > 100 µM | TGI (MOLT-4 leukemia): > 100 µM | TGI (NCI-H226 lung): > 100 µM | TGI (NCI-H23 lung): > 100 µM | TGI (NCI-H460 lung): > 100 µM | TGI (NCI-H522 lung): > 100 µM | TGI (NCI/ADR-RES ovarian): > 100 µM | TGI (OVCAR-3 ovarian): > 100 µM | TGI (OVCAR-4 ovarian): > 100 µM | TGI (OVCAR-5 ovarian): > 100 µM | TGI (OVCAR-8 ovarian): > 100 µM | TGI (PC-3 prostate): > 100 µM | TGI (RPMI-8226 leukemia): 84.4 µM | TGI (RXF 393 renal): > 100 µM | TGI (SF-268 CNS): > 100 µM | TGI (SF-295 CNS): > 100 µM | TGI (SF-539 CNS): > 100 µM | TGI (SK-MEL-2 melanoma): > 100 µM | TGI (SK-MEL-28 melanoma): > 100 µM | TGI (SK-MEL-5 melanoma): > 100 µM | TGI (SN12C renal): > 100 µM | TGI (SNB-19 CNS): > 100 µM | TGI (SNB-75 CNS): > 100 µM | TGI (SR leukemia): > 100 µM | TGI (SW-620 colon): > 100 µM | TGI (T-47D breast): > 100 µM | TGI (TK-10 renal): > 100 µM | TGI (U251 CNS): > 100 µM | TGI (UACC-257 melanoma): > 100 µM | TGI (UACC-62 melanoma): > 100 µM | TGI (UO-31 renal): > 100 µM

CC1CC/C(=C\c2ccc(Cl)cc2)c2nc(N)c(C#N)c(-c3ccc(Cl)cc3)c21 (configuration not stated)
TGI (786-0 renal): > 100 µM | TGI (A498 renal): 72.4 µM | TGI (A549 NSCLC): > 100 µM | TGI (ACHN renal): > 100 µM | TGI (BT-549 breast): > 100 µM | TGI (CAKI-1 renal): 45.5 µM | TGI (CCRF-CEM leukemia): > 100 µM | TGI (COLO 205 colon): > 100 µM | TGI (EKVX NSCLC): > 100 µM | TGI (HCC-2998 colon): > 100 µM | TGI (HCT-116 colon): > 100 µM | TGI (HCT-15 colon): > 100 µM | TGI (HL-60(TB) leukemia): 15.4 µM | TGI (HOP-62 NSCLC): > 100 µM | TGI (HT29 colon): > 100 µM | TGI (IGROV1 ovarian): > 100 µM | TGI (K-562 leukemia): > 100 µM | TGI (KM12 colon): > 100 µM | TGI (LOX IMVI melanoma): > 100 µM | TGI (M14 melanoma): > 100 µM | TGI (MALME-3M melanoma): 62 µM | TGI (MCF7 breast): > 100 µM | TGI (MDA-MB-231 breast): > 100 µM | TGI (MDA-MB-435): > 100 µM | TGI (MDA-N): > 100 µM | TGI (MOLT-4 leukemia): > 100 µM | TGI (NCI-H226 lung): > 100 µM | TGI (NCI-H23 lung): > 100 µM | TGI (NCI-H522 lung): > 100 µM | TGI (NCI/ADR-RES ovarian): > 100 µM | TGI (OVCAR-3 ovarian): > 100 µM | TGI (OVCAR-4 ovarian): > 100 µM | TGI (OVCAR-5 ovarian): > 100 µM | TGI (OVCAR-8 ovarian): > 100 µM | TGI (PC-3 prostate): > 100 µM | TGI (RPMI-8226 leukemia): > 100 µM | TGI (SF-295 CNS): > 100 µM | TGI (SF-539 CNS): > 100 µM | TGI (SK-MEL-2 melanoma): > 100 µM | TGI (SK-MEL-28 melanoma): > 100 µM | TGI (SK-MEL-5 melanoma): > 100 µM | TGI (SK-OV-3 ovarian): > 100 µM | TGI (SN12C renal): > 100 µM | TGI (SNB-19 CNS): 69.5 µM | TGI (SNB-75 CNS): > 100 µM | TGI (SR leukemia): > 100 µM | TGI (SW-620 colon): > 100 µM | TGI (T-47D breast): > 100 µM | TGI (TK-10 renal): > 100 µM | TGI (U251 CNS): > 100 µM | TGI (UACC-257 melanoma): > 100 µM | TGI (UACC-62 melanoma): > 100 µM | TGI (UO-31 renal): > 100 µM
